Test: xn = mol fraction of the nth substance listed
Settings: 100 kPa, Liquid; for speed of sound: Frequency=3 MHz, Sing-around technique in a fixed-path interferometer; for mass density: Vibrating tube method

O=C1CCCCC1 [cyclohexanone] + C1COCCO1
Settings | mass density, 293.15 K [kg/m3] | mass density, 298.15 K [kg/m3] | mass density, 303.15 K [kg/m3] | mass density, 308.15 K [kg/m3] | speed of sound, 293.15 K [m/s] | speed of sound, 298.15 K [m/s] | speed of sound, 303.15 K [m/s] | speed of sound, 308.15 K [m/s]
x2 = 0.0999 | 953.66 | 949.13 | 944.25 | 939.34 | 1423.2 | 1407.2 | 1387 | 1367.1
x2 = 0.1548 | 957.29 | 952.73 | 947.83 | 942.9 | 1419 | 1402.8 | 1382.6 | 1362.7
x2 = 0.2064 | 960.83 | 956.23 | 951.32 | 946.37 | 1415.2 | 1398.7 | 1378.5 | 1358.7
x2 = 0.2523 | 964.08 | 959.45 | 954.52 | 949.56 | 1411.8 | 1395.1 | 1374.9 | 1355
x2 = 0.3087 | 968.21 | 963.55 | 958.59 | 953.6 | 1407.8 | 1390.8 | 1370.6 | 1350.6
x2 = 0.3412 | 970.67 | 965.97 | 960.99 | 955.99 | 1405.5 | 1388.3 | 1368.1 | 1348.1
x2 = 0.3952 | 974.86 | 970.12 | 965.11 | 960.08 | 1401.8 | 1384.3 | 1364 | 1343.9
x2 = 0.4315 | 977.76 | 972.99 | 967.96 | 962.9 | 1399.3 | 1381.6 | 1361.3 | 1341.2
x2 = 0.4875 | 982.38 | 977.54 | 972.47 | 967.38 | 1395.6 | 1377.6 | 1357.2 | 1336.9
x2 = 0.5348 | 986.41 | 981.52 | 976.42 | 971.29 | 1392.5 | 1374.2 | 1353.8 | 1333.5
x2 = 0.5798 | 990.36 | 985.42 | 980.28 | 975.11 | 1389.7 | 1371.1 | 1350.6 | 1330.2
x2 = 0.6145 | 993.49 | 988.51 | 983.33 | 978.13 | 1387.5 | 1368.7 | 1348.2 | 1327.7
x2 = 0.6698 | 998.63 | 993.56 | 988.34 | 983.08 | 1384.1 | 1365 | 1344.4 | 1323.8
x2 = 0.7148 | 1002.9 | 997.82 | 992.55 | 987.23 | 1381.5 | 1362 | 1341.4 | 1320.7
x2 = 0.7682 | 1008.2 | 1003 | 997.69 | 992.32 | 1378.5 | 1358.7 | 1338 | 1317.1
x2 = 0.8015 | 1011.6 | 1006.4 | 1001 | 995.58 | 1376.8 | 1356.7 | 1335.9 | 1314.9
x2 = 0.8542 | 1017.2 | 1011.8 | 1006.4 | 1000.8 | 1374.1 | 1353.6 | 1332.7 | 1311.5
x2 = 0.9054 | 1022.7 | 1017.3 | 1011.7 | 1006.2 | 1371.7 | 1350.8 | 1329.6 | 1308.3
